Source: article PMC8550792, “Evolution of kinase polypharmacology across HSP90 drug discovery” (Cell Chemical Biology, 2021)

Legend:
Experiment in all cases: biochemical
Type in all cases: biochemical
382 unique human kinases [1] = biological target: T1, 382 unique human kinases (Homo sapiens, UniProt Q9UF33); conditions: kinase EPHA6, compound 10 uM; for remaining activity at 10 µM: read-out: % Enzyme Activity (relative to DMSO controls)
T1 construct: purchased Reaction Biology (HotSpot contract assay)
T1 sequence (Q9UF33 23-1036): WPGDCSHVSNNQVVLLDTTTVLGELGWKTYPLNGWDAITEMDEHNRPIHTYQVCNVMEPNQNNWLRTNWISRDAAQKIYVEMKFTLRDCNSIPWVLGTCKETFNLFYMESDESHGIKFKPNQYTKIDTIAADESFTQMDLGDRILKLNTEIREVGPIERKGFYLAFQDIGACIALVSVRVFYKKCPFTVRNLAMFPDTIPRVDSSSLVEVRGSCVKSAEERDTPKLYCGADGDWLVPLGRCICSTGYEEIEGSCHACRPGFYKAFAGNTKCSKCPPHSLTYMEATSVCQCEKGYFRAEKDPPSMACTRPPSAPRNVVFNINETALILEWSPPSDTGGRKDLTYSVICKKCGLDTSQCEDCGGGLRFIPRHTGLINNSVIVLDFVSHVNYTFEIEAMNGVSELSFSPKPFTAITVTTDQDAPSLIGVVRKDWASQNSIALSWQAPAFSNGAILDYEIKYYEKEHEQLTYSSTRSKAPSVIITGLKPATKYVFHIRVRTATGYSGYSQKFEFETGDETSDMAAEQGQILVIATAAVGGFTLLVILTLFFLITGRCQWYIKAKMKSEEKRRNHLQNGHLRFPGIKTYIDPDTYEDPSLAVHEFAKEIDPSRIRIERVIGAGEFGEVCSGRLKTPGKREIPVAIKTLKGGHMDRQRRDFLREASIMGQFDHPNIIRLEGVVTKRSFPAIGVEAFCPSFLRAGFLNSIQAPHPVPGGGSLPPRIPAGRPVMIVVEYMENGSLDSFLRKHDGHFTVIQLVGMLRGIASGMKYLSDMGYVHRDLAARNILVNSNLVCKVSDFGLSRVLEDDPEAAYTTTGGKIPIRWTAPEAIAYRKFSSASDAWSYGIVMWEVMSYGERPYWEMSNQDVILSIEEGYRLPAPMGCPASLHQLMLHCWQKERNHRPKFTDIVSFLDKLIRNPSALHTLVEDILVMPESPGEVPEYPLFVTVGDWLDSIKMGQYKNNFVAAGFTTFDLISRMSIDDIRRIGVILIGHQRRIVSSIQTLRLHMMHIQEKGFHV

382 unique human kinases [2] = biological target: T2, 382 unique human kinases (Homo sapiens, UniProt P22607, K650M); conditions: FGFR3 (K650M), 10 uM; for remaining activity at 10 µM: read-out: % Enzyme Activity (relative to DMSO controls)
T2 construct: purchased Reaction Biology (HotSpot contract assay)

382 unique human kinases [3] = biological target: T3, 382 unique human kinases (Homo sapiens, UniProt P31749, E17K); conditions: AKT1 (E17K), 10 uM; for remaining activity at 10 µM: read-out: % Enzyme Activity (relative to DMSO controls)
T3 construct: purchased Reaction Biology (HotSpot contract assay)

382 unique human kinases [4] = biological target: T4, 382 unique human kinases (Homo sapiens, UniProt P07947); conditions: YES/YES1, [ATP] 50 µM
T4 construct: purchased Reaction Biology (HotSpot contract assay)
T4 sequence (P07947 whole entry): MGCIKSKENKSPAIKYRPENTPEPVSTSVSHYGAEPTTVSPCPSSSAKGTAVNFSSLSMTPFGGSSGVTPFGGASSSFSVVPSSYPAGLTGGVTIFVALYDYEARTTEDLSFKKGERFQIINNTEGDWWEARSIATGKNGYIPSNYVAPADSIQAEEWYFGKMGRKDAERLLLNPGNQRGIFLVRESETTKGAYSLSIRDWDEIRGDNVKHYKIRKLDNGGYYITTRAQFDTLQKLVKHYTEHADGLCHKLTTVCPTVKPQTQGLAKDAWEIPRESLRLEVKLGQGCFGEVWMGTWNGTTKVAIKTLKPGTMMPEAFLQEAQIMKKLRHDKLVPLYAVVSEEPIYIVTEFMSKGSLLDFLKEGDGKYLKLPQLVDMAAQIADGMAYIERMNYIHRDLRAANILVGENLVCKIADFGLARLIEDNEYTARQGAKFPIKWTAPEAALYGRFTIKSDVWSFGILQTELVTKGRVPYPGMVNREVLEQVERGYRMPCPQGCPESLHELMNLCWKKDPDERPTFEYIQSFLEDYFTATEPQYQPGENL

382 unique human kinases [5] = biological target: T5, 382 unique human kinases (Homo sapiens, UniProt P35916); conditions: FLT4/VEGFR3, [ATP] 5 µM, compound 10 uM; for remaining activity at 10 µM: read-out: % Enzyme Activity (relative to DMSO controls)
T5 construct: purchased Reaction Biology (HotSpot contract assay)
T5 sequence (P35916 25-1363): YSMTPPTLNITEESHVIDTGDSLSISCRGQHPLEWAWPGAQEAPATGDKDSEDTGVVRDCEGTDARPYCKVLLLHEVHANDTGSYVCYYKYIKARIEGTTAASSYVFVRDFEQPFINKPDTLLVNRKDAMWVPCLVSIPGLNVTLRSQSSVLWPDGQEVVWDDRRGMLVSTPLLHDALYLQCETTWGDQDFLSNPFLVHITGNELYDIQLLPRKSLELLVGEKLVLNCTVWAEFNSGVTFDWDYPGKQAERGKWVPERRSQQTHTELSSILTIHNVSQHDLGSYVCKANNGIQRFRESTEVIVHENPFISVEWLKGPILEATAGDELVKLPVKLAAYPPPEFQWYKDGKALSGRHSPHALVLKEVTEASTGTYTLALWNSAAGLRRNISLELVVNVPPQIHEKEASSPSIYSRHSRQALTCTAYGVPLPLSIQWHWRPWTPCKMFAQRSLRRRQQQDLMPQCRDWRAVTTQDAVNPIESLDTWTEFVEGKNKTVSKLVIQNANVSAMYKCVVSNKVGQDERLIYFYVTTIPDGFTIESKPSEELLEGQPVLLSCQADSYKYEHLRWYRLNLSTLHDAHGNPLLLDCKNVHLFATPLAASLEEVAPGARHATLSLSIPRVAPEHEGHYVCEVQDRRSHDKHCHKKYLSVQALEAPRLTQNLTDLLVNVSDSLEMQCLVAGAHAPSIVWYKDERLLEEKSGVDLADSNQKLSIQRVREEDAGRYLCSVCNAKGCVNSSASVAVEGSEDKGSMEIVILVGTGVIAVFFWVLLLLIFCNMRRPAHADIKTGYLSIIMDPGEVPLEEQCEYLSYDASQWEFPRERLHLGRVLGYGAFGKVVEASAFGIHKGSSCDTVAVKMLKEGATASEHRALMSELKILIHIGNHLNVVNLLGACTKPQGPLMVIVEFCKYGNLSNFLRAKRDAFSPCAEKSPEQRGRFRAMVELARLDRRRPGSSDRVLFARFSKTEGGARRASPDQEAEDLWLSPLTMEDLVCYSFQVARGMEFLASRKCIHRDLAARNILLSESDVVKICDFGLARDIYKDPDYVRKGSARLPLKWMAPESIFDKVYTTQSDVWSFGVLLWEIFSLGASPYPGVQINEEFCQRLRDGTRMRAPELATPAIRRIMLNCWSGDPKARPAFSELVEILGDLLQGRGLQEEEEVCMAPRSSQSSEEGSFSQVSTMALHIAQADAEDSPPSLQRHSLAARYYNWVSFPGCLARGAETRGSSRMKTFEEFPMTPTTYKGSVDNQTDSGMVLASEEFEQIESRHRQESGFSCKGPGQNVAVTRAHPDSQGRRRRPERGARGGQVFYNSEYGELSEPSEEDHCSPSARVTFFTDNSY

382 unique human kinases [6] = biological target: T6, 382 unique human kinases (Homo sapiens, UniProt P07949, V804E); conditions: RET (V804E), 10 uM; for remaining activity at 10 µM: read-out: % Enzyme Activity (relative to DMSO controls)
T6 construct: purchased Reaction Biology (HotSpot contract assay)
T6 sequence (P07949 29-1114 V804E): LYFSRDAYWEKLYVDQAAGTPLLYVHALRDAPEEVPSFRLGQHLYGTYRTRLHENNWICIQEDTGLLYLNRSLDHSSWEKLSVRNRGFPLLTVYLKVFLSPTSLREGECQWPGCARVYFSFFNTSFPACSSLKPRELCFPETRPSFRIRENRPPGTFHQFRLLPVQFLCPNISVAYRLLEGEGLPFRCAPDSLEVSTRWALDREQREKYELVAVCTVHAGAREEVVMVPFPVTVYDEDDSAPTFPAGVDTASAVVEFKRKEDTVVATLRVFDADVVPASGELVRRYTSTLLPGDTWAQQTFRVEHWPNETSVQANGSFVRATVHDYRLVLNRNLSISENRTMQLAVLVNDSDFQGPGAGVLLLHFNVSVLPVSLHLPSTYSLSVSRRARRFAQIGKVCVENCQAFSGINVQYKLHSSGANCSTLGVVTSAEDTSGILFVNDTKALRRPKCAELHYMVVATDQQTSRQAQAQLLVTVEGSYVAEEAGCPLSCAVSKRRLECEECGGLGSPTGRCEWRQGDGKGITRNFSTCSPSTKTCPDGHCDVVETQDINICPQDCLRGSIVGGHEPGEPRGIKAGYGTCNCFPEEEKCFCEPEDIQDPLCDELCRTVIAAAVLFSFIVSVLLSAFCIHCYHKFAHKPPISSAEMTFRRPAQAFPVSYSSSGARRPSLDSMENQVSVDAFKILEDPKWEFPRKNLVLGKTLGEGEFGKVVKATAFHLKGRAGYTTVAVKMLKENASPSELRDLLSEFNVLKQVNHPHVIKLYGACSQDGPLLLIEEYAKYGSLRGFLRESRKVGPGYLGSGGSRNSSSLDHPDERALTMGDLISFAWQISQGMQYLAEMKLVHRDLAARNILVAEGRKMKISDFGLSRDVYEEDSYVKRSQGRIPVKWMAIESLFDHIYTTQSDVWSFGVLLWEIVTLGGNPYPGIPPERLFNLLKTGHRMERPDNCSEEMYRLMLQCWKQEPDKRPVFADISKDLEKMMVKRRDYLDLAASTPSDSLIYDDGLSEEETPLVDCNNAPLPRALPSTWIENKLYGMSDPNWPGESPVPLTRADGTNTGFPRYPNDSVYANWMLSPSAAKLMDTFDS

382 unique human kinases [7] = biological target: T7, 382 unique human kinases (Homo sapiens, UniProt Q16644); conditions: MAPKAPK3, 10 uM; for remaining activity at 10 µM: read-out: % Enzyme Activity (relative to DMSO controls)
T7 construct: purchased Reaction Biology (HotSpot contract assay)

382 unique human kinases [8] = biological target: T8, 382 unique human kinases (Homo sapiens, UniProt P00533, DEL746-750/T790M); conditions: EGFR (d746-750/T790M), 10 uM; for remaining activity at 10 µM: read-out: % Enzyme Activity (relative to DMSO controls)
T8 construct: purchased Reaction Biology (HotSpot contract assay)

382 unique human kinases [9] = biological target: T9, 382 unique human kinases (Homo sapiens, UniProt Q08881); conditions: ITK, 10 uM; for remaining activity at 10 µM: read-out: % Enzyme Activity (relative to DMSO controls)
T9 construct: purchased Reaction Biology (HotSpot contract assay)
T9 sequence (Q08881 1-620): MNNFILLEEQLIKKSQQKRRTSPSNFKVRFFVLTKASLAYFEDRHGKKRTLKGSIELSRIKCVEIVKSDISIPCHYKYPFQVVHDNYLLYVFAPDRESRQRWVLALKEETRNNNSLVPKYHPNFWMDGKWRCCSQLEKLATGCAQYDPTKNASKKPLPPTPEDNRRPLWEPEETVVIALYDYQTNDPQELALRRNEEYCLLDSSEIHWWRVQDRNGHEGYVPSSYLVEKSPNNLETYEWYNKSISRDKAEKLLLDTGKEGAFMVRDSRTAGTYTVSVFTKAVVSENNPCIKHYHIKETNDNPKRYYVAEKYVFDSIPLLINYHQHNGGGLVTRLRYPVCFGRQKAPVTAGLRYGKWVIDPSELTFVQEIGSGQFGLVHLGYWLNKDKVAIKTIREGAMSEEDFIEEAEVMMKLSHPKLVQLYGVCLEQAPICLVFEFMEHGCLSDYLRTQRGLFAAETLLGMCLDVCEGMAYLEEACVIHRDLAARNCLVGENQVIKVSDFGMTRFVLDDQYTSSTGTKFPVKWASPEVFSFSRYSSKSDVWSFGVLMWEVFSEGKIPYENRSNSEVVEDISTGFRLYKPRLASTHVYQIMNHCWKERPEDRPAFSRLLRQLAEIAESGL

382 unique human kinases [10] = biological target: T10, 382 unique human kinases (Homo sapiens, UniProt P42685); conditions: FRK/PTK5, [ATP] 30 µM, compound 10 uM; for remaining activity at 10 µM: read-out: % Enzyme Activity (relative to DMSO controls)
T10 construct: purchased Reaction Biology (HotSpot contract assay)

382 unique human kinases [11] = biological target: T11, 382 unique human kinases (Homo sapiens, UniProt P00519, Y253H); conditions: ABL1 (Y253H), [ATP] 10 µM, compound 10 uM; for remaining activity at 10 µM: read-out: % Enzyme Activity (relative to DMSO controls)
T11 construct: purchased Reaction Biology (HotSpot contract assay)
T11 sequence (P00519 whole entry Y253H): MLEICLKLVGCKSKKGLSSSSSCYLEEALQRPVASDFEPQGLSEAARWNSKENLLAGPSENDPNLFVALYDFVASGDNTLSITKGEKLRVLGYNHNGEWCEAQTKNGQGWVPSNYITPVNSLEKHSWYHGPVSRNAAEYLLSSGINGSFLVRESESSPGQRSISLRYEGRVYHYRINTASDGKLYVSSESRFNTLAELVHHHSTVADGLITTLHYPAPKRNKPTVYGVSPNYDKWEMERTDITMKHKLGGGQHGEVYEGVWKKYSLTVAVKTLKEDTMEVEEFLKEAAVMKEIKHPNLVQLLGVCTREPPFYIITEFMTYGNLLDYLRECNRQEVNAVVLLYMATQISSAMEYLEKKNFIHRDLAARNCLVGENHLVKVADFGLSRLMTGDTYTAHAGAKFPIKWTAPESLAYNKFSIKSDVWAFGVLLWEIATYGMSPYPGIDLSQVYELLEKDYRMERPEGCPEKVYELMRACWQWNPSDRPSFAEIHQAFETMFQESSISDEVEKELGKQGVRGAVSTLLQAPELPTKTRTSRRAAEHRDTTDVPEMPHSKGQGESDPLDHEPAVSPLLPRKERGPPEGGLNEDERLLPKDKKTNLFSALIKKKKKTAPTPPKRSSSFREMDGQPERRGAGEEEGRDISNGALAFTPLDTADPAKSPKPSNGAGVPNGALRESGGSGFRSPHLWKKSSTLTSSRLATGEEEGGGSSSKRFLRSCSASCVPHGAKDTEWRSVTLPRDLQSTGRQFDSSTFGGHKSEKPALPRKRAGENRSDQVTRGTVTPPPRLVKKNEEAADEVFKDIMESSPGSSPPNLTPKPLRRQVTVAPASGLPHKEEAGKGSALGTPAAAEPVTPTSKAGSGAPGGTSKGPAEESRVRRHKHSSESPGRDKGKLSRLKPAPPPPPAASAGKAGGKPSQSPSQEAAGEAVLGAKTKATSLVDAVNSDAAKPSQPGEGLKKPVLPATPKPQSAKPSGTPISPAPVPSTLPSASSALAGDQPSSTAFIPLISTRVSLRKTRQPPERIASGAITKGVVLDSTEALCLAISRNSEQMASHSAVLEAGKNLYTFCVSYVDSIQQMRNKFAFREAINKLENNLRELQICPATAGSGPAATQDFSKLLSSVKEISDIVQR

382 unique human kinases [12] = biological target: T12, 382 unique human kinases (Homo sapiens, UniProt Q9NYL2); conditions: ZAK/MLTK, [ATP] 50 µM, compound 10 uM; for remaining activity at 10 µM: read-out: % Enzyme Activity (relative to DMSO controls)
T12 construct: purchased Reaction Biology (HotSpot contract assay)
T12 sequence (Q9NYL2 whole entry): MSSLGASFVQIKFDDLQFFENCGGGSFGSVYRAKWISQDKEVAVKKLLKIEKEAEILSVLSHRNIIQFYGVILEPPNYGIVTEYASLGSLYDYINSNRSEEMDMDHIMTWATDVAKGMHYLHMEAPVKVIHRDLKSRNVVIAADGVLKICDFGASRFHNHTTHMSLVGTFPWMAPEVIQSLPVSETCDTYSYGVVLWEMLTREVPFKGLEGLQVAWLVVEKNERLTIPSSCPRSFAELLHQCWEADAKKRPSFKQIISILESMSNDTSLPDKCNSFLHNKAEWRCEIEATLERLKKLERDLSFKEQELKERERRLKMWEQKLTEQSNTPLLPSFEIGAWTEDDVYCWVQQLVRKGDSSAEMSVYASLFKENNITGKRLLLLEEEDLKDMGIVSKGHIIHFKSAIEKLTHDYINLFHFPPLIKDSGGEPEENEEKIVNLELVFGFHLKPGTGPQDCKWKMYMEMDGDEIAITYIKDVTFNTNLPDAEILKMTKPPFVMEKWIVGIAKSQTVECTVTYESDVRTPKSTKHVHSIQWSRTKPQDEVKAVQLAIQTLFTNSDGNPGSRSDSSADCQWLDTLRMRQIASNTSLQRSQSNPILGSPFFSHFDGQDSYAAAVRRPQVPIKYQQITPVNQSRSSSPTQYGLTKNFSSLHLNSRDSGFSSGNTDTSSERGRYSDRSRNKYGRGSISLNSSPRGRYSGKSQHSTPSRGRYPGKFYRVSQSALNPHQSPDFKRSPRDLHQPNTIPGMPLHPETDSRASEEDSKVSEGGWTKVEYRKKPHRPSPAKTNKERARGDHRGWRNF

[13] = compound 10 uM, read-out: % Enzyme Activity (relative to DMSO controls)

Row | Compound | remaining activity at 10 µM (382 unique human kinases [1]) | remaining activity at 10 µM (382 unique human kinases [2]) | remaining activity at 10 µM (382 unique human kinases [3]) | remaining activity at 10 µM (382 unique human kinases [4]; [13]) | remaining activity at 10 µM (382 unique human kinases [5]) | remaining activity at 10 µM (382 unique human kinases [6]) | remaining activity at 10 µM (382 unique human kinases [7]) | remaining activity at 10 µM (382 unique human kinases [8]) | remaining activity at 10 µM (382 unique human kinases [9]) | remaining activity at 10 µM (382 unique human kinases [10]) | remaining activity at 10 µM (382 unique human kinases [11]) | remaining activity at 10 µM (382 unique human kinases [12]) | other results
1 | CC(C)c1cc(-c2n[nH]c(=O)n2-c2ccc3c(ccn3C)c2)c(O)cc1O [Ganetespib (STA9090)] | 91% | 86.5% |  |  |  |  |  |  |  |  |  |  | 
2 | CCNC(=O)c1noc(-c2cc(C(C)C)c(O)cc2O)c1-c1ccc(CN2CCOCC2)cc1 [Luminespib] |  |  | 101% | 52.3% | 96% | 93.3% | 105% | 100% | 94.1% | 64.5% | 6.94% | 99.3% | % Enzyme Activity (relative to DMSO controls) (382 unique human kinases [3]): 93.12%; % Enzyme Activity (relative to DMSO controls) (382 unique human kinases [4]; compound 10 uM): 49.59%; % Enzyme Activity (relative to DMSO controls) (382 unique human kinases [5]): 95.96%; % Enzyme Activity (relative to DMSO controls) (382 unique human kinases [6]): 91.98%; % Enzyme Activity (relative to DMSO controls) (382 unique human kinases [7]): 103.47%; % Enzyme Activity (relative to DMSO controls) (382 unique human kinases [8]): 99.12%; % Enzyme Activity (relative to DMSO controls) (382 unique human kinases [9]): 92.96%; % Enzyme Activity (relative to DMSO controls) (382 unique human kinases [10]): 63.67%; % Enzyme Activity (relative to DMSO controls) (382 unique human kinases [11]): 6.34%; % Enzyme Activity (relative to DMSO controls) (382 unique human kinases [12]): 94.35%
3 | CCNC(=O)c1noc(-c2cc(C(C)C)c(O)cc2O)c1-c1ccc(CN2CCOCC2)cc1 [Luminespib (AUY-922)] | 92% | 78.7% |  |  |  |  |  |  |  |  |  |  | % Enzyme Activity (relative to DMSO controls) (382 unique human kinases [1]): 91.89%; % Enzyme Activity (relative to DMSO controls) (382 unique human kinases [2]): 70.76%
4 | CC(C)c1cc(-c2n[nH]c(=O)n2-c2ccc3c(ccn3C)c2)c(O)cc1O [Ganetespib] |  |  | 94.2% | 12.8% | 47.4% | 92.2% | 97.3% | 118% | 95.6% | 18.1% | 9.65% | 48.1% | remaining activity at 1 µM (382 unique human kinases [4]; compound 1 uM, read-out: % Enzyme Activity (relative to DMSO controls)): 45.5%
